Data published in patent US11634425B2, “Pharmaceutical compounds” (priority 2019, dated 2023).
Read-outs that look alike come from different tables or passages of the source.

Experiments:
RSV A2 = experiment: RSV plaque reduction assay; format: cell-based, respiratory syncytial virus (RSV); conditions: human respiratory syncytial virus, HepG2, Hep-G2 cells, mean of at least two experiments
How it was run: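 EC50 is the 50% reduction in immunostained plaque count versus virus-control wells, interpolated from variable-slope 4-parameter fits and averaged over at least two runs. Hep-G2 cells were infected with 100 PFU/well RSV A2 premixed with compound, with the inoculum removed after 2 h. Incubation continued at 37 °C for 2 days under a CMC overlay with compound.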

Cell cytotoxicity (CC50) = format: cell-based; conditions: human; mean of at least two experiments
How it was run: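 Values are means of ≥2 independent runs, rounded to whole units, from 4-parameter variable-slope curve fits. Toxicity measured in Hep-G2 cells run alongside RSV plaque-reduction assays.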

in vitro = in vitro ADME; conditions: microsomes, pH 7.4, 1 μM compound, 0.5 mg/mL protein, read-out: Liver Microsomal Stability t1/2
Description: Compounds were subjected to the following assays to investigate liver microsomal stability and hepatocyte stability.
Microsomal Incubation: Experimental Procedure
Pooled liver microsomes were purchased from a reputable commercial supplier and stored at −80° C. prior to use. Microsomes (final protein concentration 0.5 mg/mL), 0.1 M phosphate buffer pH 7.4 and test compound (final substrate concentration 1 μM; final DMSO concentration 0.25%) were pre-incubated at 37° C. prior to the addition of NADPH (final concentration 1 mM) to initiate the reaction. The final incubation volume was 50 μL. A control incubation was included for each compound tested where 0.1 M phosphate buffer pH 7.4 was added instead of NADPH (minus NADPH). Two control compounds were included with each species. All incubations were performed singularly for each test compound. Each compound was incubated for 0, 5, 15, 30 and 45 min. The control (minus NADPH) was incubated for 45 min only. The reactions were stopped by transferring incubate into acetonitrile at the appropriate time points, in a 1:3 ratio. The termination plates are centrifuged at 3,000 rpm for 20 min at 4° C. to precipitate the protein. Following protein precipitation, the sample supernatants were combined in cassettes of up to 4 compounds, internal standard added, and samples analysed by LC-MS/MS. From a plot of ln peak area ratio (compound peak area/internal standard peak area) against time, the gradient of the line was determined. Subsequently, half-life (t1/2) and intrinsic clearance (CLint) were calculated.

Row | Compound | EC50 (RSV A2) | CC50 (Cell cytotoxicity (CC50)) | half-life at 1 μM (in vitro; dog) | half-life at 1 μM (in vitro; human) | half-life at 1 μM (in vitro; rat)
1 | CNc1ccc(-c2nn3cccnc3c2C(=O)N[C@H]2N=C(c3ccccc3)c3ccccc3NC2=O)cc1 [Example 1, 2-[4-(Methylamino)phenyl]-N-[(3S)-2-oxo-5-phenyl-1,3-dihydro-1,4-benzodiazepin-3-yl]pyrazolo[1,5-a]pyrimidine-3-carboxamide] | 35 nM | > 25000 nM | 1.25 h | 1.22 h | 0.678 h
2 | O=C(N[C@H]1N=C(c2ccccc2)c2ccccc2NC1=O)c1c(-c2ccc(F)cc2F)nn2cccnc12 [Example 4, 2-(2,4-difluorophenyl)-N-[(3S)-2-oxo-5-phenyl-1,3-dihydro-1,4-benzodiazepin-3-yl]pyrazolo[1,5-a]pyrimidine-3-carboxamide] | 62 nM | > 25000 nM | 3.93 h | > 2.33 h | > 2.33 h
3 | O=C(N[C@H]1N=C(c2ccccc2)c2cccc(F)c2NC1=O)c1c(-c2ccc(F)cc2F)nn2cccnc12 [Example 5, 2-(2,4-Difluorophenyl)-N-[(3S)-9-fluoro-2-oxo-5-phenyl-1,3-dihydro-1,4-benzodiazepin-3-yl]pyrazolo[1,5-a]pyrimidine-3-carboxamide] | 39 nM | > 25000 nM | 5.93 h | > 2.33 h | > 2.33 h
4 | O=C(N[C@H]1N=C(c2ccccc2)c2cccc(F)c2NC1=O)c1c(-c2cc(F)ccc2F)nn2cccnc12 [Example 7, 2-(2,5-Difluorophenyl)-N-[(3S)-9-fluoro-2-oxo-5-phenyl-1,3-dihydro-1,4-benzodiazepin-3-yl]pyrazolo[1,5-a]pyrimidine-3-carboxamide] | 107 nM | > 25000 nM | 2.5 h | 10.7 h | 2.08 h
5 | O=C(N[C@H]1N=C(c2ccccc2)c2cccc(F)c2NC1=O)c1c(-c2ccccc2Cl)nn2cccnc12 [Example 10, 2-(2-Chlorophenyl)-N-[(3S)-9-fluoro-2-oxo-5-phenyl-1,3-dihydro-1,4-benzodiazepin-3-yl]pyrazolo[1,5-a]pyrimidine-3-carboxamide] | 77 nM | 21100 nM | 6.33 h | > 2.33 h | 1.83 h
6 | O=C(N[C@H]1N=C(c2ccccc2)c2ccccc2NC1=O)c1c(-c2ccccc2)nn2cccnc12 [Example 12, N-[(3S)-2-oxo-5-phenyl-1,3-dihydro-1,4-benzodiazepin-3-yl]-2-phenylpyrazolo[1,5-a]pyrimidine-3-carboxamide] | 153 nM | > 25000 nM | 3.87 h | 4.4 h | > 2.33 h
7 | COc1ccc(-c2nn3cccnc3c2C(=O)N[C@H]2N=C(c3ccccc3)c3ccccc3NC2=O)c(F)c1 [Example 14, 2-(2-Fluoro-4-methoxyphenyl)-N-[(3S)-2-oxo-5-phenyl-1,3-dihydro-1,4-benzodiazepin-3-yl]pyrazolo[1,5-a]pyrimidine-3-carboxamide] | 41 nM | > 25000 nM | 1.33 h | > 2.33 h | 2.72 h
8 | CNc1ccc(-c2nn3cccnc3c2C(=O)N[C@H]2N=C(c3ccccc3)c3ccccc3NC2=O)c(F)c1 [Example 16, 2-[2-Fluoro-4-(methylamino)phenyl]-N-[(3S)-2-oxo-5-phenyl-1,3-dihydro-1,4-benzodiazepin-3-yl]pyrazolo[1,5-a]pyrimidine-3-carboxamide] | 18 nM | > 25000 nM | 0.657 h | 1.5 h | 0.652 h
9 | Cc1nn2cc(-c3ccoc3)cnc2c1C(=O)N[C@H]1N=C(c2ccccc2)c2cccc(F)c2NC1=O [Example 24, N-[(3S)-9-Fluoro-2-oxo-5-phenyl-1,3-dihydro-1,4-benzodiazepin-3-yl]-6-(furan-3-yl)-2-methylpyrazolo[1,5-a]pyrimidine-3-carboxamide] | 104 nM | > 25000 nM | 1.98 h | > 2.33 h | 0.427 h
10 | O=C(N[C@H]1N=C(c2ccccc2)c2ccccc2NC1=O)c1c(-c2cncc(Cl)c2)nn2cccnc12 [Example 27, 2-(5-Chloropyridin-3-yl)-N-[(3S)-2-oxo-5-phenyl-1,3-dihydro-1,4-benzodiazepin-3-yl]pyrazolo[1,5-a]pyrimidine-3-carboxamide] | 61 nM | > 25000 nM | 0.997 h | 2.03 h | 8.75 h
11 | O=C(N[C@H]1N=C(c2ccccc2)c2ccccc2NC1=O)c1c(-c2ccc(C3CC3)nc2)nn2cccnc12 [Example 29, 2-(6-Cyclopropylpyridin-3-yl)-N-[(3S)-2-oxo-5-phenyl-1,3-dihydro-1,4-benzodiazepin-3-yl]pyrazolo[1,5-a]pyrimidine-3-carboxamide] | 72 nM | > 25000 nM | 1.23 h | 5.22 h | 15.2 h
12 | O=C(N[C@H]1N=C(c2ccccc2)c2cccc(F)c2NC1=O)c1c(-c2ccc(C3CC3)nc2)nn2cccnc12 [Example 30, 2-(6-Cyclopropylpyridin-3-yl)-N-[(3S)-9-fluoro-2-oxo-5-phenyl-1,3-dihydro-1,4-benzodiazepin-3-yl]pyrazolo[1,5-a]pyrimidine-3-carboxamide] | 62 nM | > 25000 nM | 4.88 h | 3.02 h | 4.43 h
13 | Cc1cnc(F)c(-c2nn3cccnc3c2C(=O)N[C@H]2N=C(c3ccccc3)c3cccc(F)c3NC2=O)c1 [Example 32, 2-(2-Fluoro-5-methylpyridin-3-yl)-N-[(3S)-9-fluoro-2-oxo-5-phenyl-1,3-dihydro-1,4-benzodiazepin-3-yl]pyrazolo[1,5-a]pyrimidine-3-carboxamide] | 86 nM | > 25000 nM | 3.78 h | 5.58 h | 1.28 h
14 | CCc1ccc(-c2nc3ccc(OC)nn3c2C(=O)N[C@H]2N=C(c3ccccc3)c3cccc(F)c3NC2=O)cn1 [Example 121, 2-(6-Ethylpyridin-3-yl)-6-methoxy-N-[(3S)-9-fluoro-2-oxo-5-phenyl-1,3-dihydro-1,4-benzodiazepin-3-yl]imidazo[1,2-b]pyridazine-3-carboxamide] | 42 nM | > 25000 nM | – | – | –
15 | CCOc1ccc2nc(-c3ccc(CC)nc3)c(C(=O)N[C@H]3N=C(c4ccccc4)c4cccc(F)c4NC3=O)n2n1 [Example 122, 6-Ethoxy-2-(6-ethylpyridin-3-yl)-N-[(3S)-9-fluoro-2-oxo-5-phenyl-1,3-dihydro-1,4-benzodiazepin-3-yl]imidazo[1,2-b]pyridazine-3-carboxamide] | 100 nM | > 25000 nM | – | – | –
16 | [2H]C([2H])([2H])Oc1ccc2nc(-c3ccc(CC)nc3)c(C(=O)N[C@H]3N=C(c4ccccc4)c4cccc(F)c4NC3=O)n2n1 [Example 123, 2-(6-Ethylpyridin-3-yl)-N-[(3S)-9-fluoro-2-oxo-5-phenyl-2,3-dihydro-1H-1,4-benzodiazepin-3-yl]-6-(^2H3)methoxyimidazo[1,2-b]pyridazine-3-carboxamide] | 45 nM | > 25000 nM | – | – | –
